US20250288658A1 (priority 2022, published 2025)
Bridge positions count the residues as written; N and C are the ends. Square brackets hold non-standard residues; d marks the D form. Side chains are listed from the residue outwards. Peptide text beside a SMILES is read from it. * marks the point of attachment. ξ: configuration not given here. Acetyl(2-S-3ξ-cholesteryl) = CC(C)CCC[C@@H](C)[C@H]1CC[C@H]2[C@@H]3CC=C4CC(SCC(=O)*)CC[C@]4(C)[C@H]3CC[C@]12C; R8 = C=CCCCCCC[C@@](C)(N)C(=O)O; PEG4 = NCCOCCOCCOCCOCCC(=O)O; S5 = C=CCCC[C@](C)(N)C(=O)O

Test system: wild type EBOV
Settings: 24 h

For CC[C@H](C)[C@H](NC(=O)[C@H](C)NC(=O)[C@H](CS)NC(=O)[C@H](CC(=O)O)NC(=O)[C@@H]1CCCN1C(=O)CNC(=O)[C@H](CC(C)C)NC(=O)[C@@H](NC(=O)[C@H](Cc1c[nH]cn1)NC(=O)[C@H](CS)NC(=O)[C@@H](NC(C)=O)[C@@H](C)O)[C@@H](C)CC)C(=O)N[C@@H](CCC(=O)O)C(=O)N1CCC[C@H]1C(=O)N[C@@H](Cc1c[nH]cn1)C(=O)N[C@@H](CC(=O)O)C(=O)N[C@@H](Cc1c[nH]c2ccccc12)C(=O)N[C@H](C(=O)N[C@]1(C)CCCCCCC=CCCC[C@@](C)(C(=O)N[C@@H](CCC(N)=O)C(=O)N[C@H](C(=O)N[C@H](C(=O)N[C@@H](Cc2c[nH]cn2)C(=O)N[C@@H](CC(=O)O)C(=O)N[C@@H](Cc2ccccc2)C(=O)N[C@H](C(=O)N[C@@H](CCCCNC(=O)CCOCCOCCOCCOCCNC(=O)CSC2CC[C@@]3(C)C(=CC[C@H]4[C@@H]5CC[C@H]([C@H](C)CCCC(C)C)[C@@]5(C)CC[C@@H]43)C2)C(N)=O)C(C)C)[C@@H](C)CC)[C@@H](C)CC)NC(=O)[C@H]([C@@H](C)CC)NC(=O)[C@H](CCCCN)NC(=O)[C@H](CC(=O)O)NC(=O)[C@H]([C@@H](C)O)NC(=O)[C@H]([C@@H](C)CC)NC(=O)[C@H](CC(N)=O)NC1=O)[C@@H](C)O (stereo partly shown) [SEQ ID NO:22, TCHILGPDCAIEPHDWT8NITDKIXQIIHDFV*] (Ac-TCHILGPDCAIEPHDWT[R8]NITDKI[S5]QIIHDFVK([PEG4-Acetyl(2-S-3ξ-cholesteryl)])-NH2; staple 18-25), the IC50 was about 1.5 µM.
